Legend:
RAF1 (a.k.a CRAF) = RAF1 (a.k.a CRAF) (Homo sapiens, UniProt P04049); experiment: Global proteomics profiling, JURKAT cells; assay type: cell-based; parameters: endogenous in cells; host or cells: JURKAT, ATCC TIB-152 (A12.2); conditions: 300 nM, 24 hours
Method: (§1) Each cell line was treated in duplicate with either DMSO or Compound 157 (final concentration 300 nM) for 24 hours in an incubator at 37° C. with 5% CO2. After the 24-hour incubation, cells were harvested, washed twice with PBS, and snap frozen in liquid nitrogen. Samples were re-suspended in lysis buffer [8 M urea, 50 mM HEPES (pH 8.5), 50 mM NaCl, 1× protease inhibitor cocktail] and lysed by sonication at 4° C. with 85% amplitude in a pulse setting with 30 seconds on and 30 seconds off for a total sonication time of 5 minutes. Lysates were centrifuged at maximum speed for 10 minutes at 4° C. and the supernatant collected, reduced for 1 hour at room temperature with 5 mM TCEP, and the cysteine residues were then alkylated with 15 mM iodoacetamide (room temperature, in dark, 30 minutes). Protein content was extracted by methanol-chloroform precipitation and subsequent ice-cold acetone washes. Protein pellets were resuspended in 8 M urea, 50 mM HEPES (pH 8.5) buffer and protein concentrations were measured by BCA assay. […]
(§2) For peptide tandem mass tag (TMT) labeling, 100 μg of peptides per sample was prepared at […] concentration in 200 mM HEPES (pH 8.5), 30% acetonitrile (ACN) and each the specific TMT reagent. […] TMT reporter ion intensities were quantified by extracting the signal-to-noise ratio for each. […]

ARAF = ARAF (Homo sapiens, UniProt P10398); experiment: Global proteomics profiling, A375 cells; assay type: cell-based; parameters: endogenous in cells; host or cells: A375 (A7.2); conditions: 300 nM, 24 hours
Method: as §1, §2

BRAF (wild type) = target: T1, BRAF (wild type) (Homo sapiens, UniProt P15056); experiment: Global proteomics profiling, JURKAT cells; assay type: cell-based; conditions: 300 nM, 24 hours
T1 construct: host or cells: JURKAT
Method: as §1, §2

A375 tumors = experiment: In vivo efficacy in A375 xenografts; parameters: species or system BALB/c nude mice
[1] = target: BRAF V600E, test compound and CRBN ternary complex (Homo sapiens, UniProt P15056+Q96SW2, V600E); experiment: AlphaLISA ternary complex formation assay; assay type: binding; conditions: GST-BRAF V600E 16 nM, His-CRBN 64 nM
Method: Formation of the ternary complex between BRAF V600E, test compound and CRBN was quantified using AlphaLISA® assay. GST-tagged BRAF V600E and His-tagged CRBN were labeled with a donor/acceptor AlphaLISA® pair, and complex formation was monitored via a change in the Alpha-signal. Signal from the control wells was used as a normalization control.
Characterization of the ternary complex formation between GST-BRAF V600E, Compound 157 and his-CRBN was carried out using an AlphaLISA® assay. Compounds were dispensed from serially diluted DMSO stock in low dead volume plates into gray 384-well AlphaPlates using acoustic technology to 1% of total reaction volume. Compounds were arranged vertically in rows A through P. Concentration series were horizontal: columns 1-11, and then duplicates in columns 12-22.
Excitation of the donor beads results in generation of singlet oxygen molecules. […]
A 10 μL mixture containing 16 nM of BRAF V600E and 64 nM of CRBN in 50 mM HEPES (pH 7.4), 200 mM NaCl, 1 mM TCEP, 0.05% Pluronic Acid, 0.1% BSA was added to the wells containing test compounds (columns 1-22) and the negative control wells (column 23). […] Plates were then read on an Envision plate reader with an appropriate AlphaLISA® filter set.

ARAF, sequence (P10398 whole entry): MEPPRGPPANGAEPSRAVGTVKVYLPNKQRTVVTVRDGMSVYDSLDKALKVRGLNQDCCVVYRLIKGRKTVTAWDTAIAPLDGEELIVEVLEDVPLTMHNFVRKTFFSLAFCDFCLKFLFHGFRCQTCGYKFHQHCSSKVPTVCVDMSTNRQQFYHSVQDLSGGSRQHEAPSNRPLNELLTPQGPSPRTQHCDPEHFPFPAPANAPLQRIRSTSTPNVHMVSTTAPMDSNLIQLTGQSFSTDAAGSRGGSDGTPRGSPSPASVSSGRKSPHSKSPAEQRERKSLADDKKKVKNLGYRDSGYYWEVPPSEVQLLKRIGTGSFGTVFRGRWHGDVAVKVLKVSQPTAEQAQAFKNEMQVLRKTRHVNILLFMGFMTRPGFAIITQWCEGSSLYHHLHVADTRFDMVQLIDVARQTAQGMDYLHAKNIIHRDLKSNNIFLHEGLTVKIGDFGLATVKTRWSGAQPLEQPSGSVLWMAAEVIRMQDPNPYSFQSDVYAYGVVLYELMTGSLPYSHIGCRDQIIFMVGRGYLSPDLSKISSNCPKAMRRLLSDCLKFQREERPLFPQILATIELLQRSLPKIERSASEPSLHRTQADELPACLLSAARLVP
BRAF V600E, test compound and CRBN ternary complex, sequence (P15056 whole entry V600E): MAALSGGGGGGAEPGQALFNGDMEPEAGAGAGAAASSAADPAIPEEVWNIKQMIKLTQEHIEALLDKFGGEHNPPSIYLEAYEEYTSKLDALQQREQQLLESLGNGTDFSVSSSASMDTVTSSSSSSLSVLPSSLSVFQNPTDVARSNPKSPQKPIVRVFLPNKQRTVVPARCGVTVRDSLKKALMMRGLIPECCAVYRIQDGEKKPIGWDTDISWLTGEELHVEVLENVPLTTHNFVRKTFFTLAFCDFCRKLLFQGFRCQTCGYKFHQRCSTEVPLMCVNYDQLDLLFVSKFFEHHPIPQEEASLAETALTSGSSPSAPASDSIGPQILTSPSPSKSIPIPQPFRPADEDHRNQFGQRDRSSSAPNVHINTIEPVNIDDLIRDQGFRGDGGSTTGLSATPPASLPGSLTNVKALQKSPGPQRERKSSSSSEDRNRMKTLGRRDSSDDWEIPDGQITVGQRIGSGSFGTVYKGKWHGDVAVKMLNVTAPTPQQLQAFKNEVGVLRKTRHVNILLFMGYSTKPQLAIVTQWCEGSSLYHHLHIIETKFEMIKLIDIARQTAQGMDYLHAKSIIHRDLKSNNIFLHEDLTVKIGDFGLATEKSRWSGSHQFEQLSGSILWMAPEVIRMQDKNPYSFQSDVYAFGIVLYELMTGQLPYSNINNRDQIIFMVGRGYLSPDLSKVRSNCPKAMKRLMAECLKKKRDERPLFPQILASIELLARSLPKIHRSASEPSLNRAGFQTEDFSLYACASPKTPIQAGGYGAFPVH
BRAF V600E, test compound and CRBN ternary complex, sequence (Q96SW2 whole entry): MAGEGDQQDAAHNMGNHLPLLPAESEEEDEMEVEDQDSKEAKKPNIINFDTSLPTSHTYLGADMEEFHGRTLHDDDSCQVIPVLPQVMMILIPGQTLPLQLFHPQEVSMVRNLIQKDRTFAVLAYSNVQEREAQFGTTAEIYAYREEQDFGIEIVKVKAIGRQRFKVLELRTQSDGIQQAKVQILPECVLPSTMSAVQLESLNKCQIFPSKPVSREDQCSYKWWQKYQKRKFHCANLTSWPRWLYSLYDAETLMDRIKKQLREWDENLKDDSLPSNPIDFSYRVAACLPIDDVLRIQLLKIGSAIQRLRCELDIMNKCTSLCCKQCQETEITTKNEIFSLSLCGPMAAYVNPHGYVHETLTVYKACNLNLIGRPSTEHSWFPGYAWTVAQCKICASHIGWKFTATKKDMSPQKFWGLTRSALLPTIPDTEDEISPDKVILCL
RAF1 (a.k.a CRAF), sequence (P04049 whole entry): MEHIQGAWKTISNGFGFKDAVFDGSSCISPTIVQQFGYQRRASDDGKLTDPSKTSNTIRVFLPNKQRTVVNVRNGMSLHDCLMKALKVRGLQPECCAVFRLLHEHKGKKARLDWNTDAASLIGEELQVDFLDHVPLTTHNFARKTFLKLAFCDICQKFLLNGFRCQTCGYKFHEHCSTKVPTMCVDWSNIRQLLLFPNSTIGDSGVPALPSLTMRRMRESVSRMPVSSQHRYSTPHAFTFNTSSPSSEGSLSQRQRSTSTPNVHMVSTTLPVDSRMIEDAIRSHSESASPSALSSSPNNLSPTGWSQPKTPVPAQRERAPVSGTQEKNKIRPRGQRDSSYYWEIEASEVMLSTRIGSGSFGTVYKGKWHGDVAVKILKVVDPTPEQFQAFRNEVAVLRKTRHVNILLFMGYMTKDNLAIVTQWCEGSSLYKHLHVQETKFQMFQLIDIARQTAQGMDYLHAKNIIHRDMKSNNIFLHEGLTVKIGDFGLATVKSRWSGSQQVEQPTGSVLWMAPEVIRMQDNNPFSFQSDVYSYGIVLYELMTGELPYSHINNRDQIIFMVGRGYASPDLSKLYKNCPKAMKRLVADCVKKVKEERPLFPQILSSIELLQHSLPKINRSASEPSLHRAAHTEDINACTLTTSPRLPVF
T1 sequence (P15056 whole entry): as the sequence (P15056 whole entry V600E) above, with E600V counted along it

## CCN(C)S(=O)(=O)Nc1ccc(F)c(Oc2ccc3ncn([C@H]4COC5(CCN(C(=O)CC6(O)CCN(c7cc8c(cc7F)c(N7CCC(=O)NC7=O)nn8C)CC6)CC5)C4)c(=O)c3c2)c1C#N [Compound 157, (3R)-3-[6-[2-cyano-3-[[ethyl(methyl)sulfamoyl]amino]-6-fluorophenoxy]-4-oxoquinazolin-3-yl]-8-[2-[1-[3-(2,4-dioxo-1,3-diazinan-1-yl)-5-fluoro-1-methylindazol-6-yl]-4-hydroxypiperidin-4-yl]acetyl]-1-oxa-8-azaspiro[4.5]decane]
RAF1 (a.k.a CRAF)
  RAF1 (CRAF) protein level change: unchanged
ARAF
  ARAF protein level change: remain largely unchanged
BRAF (wild type)
  BRAF protein level change: unchanged
A375 tumors; oral delivery
  efficacy compared with encorafenib: more efficacious than a clinically relevant dose of encorafenib
A375 tumors; oral, 10 mg/kg BID
  tumor response: profound tumor regressions
[1]
  Ternary complex formation (concentration dependence): characteristic bell-shaped curve
